Experimental data reported in ChEMBL document CHEMBL1201862, “PubChem BioAssay data set” (2004).
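96-well plates; 48 h exposure; 5 concentrations. Endpoints by linear interpolation between flanking doses. Not reached: highest tested concentration assigned. GI50: concentration for 50% inhibition of growth.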 Activity calls are given as the source filed them. Cut-off read from the data, not from the text of the source: active = GI50 up to about 1.1 µM and inactive = higher.

Assays:
Assay in all cases: NCI anticancer screen, dose series, 48 h
[1] = system: RPMI-8226
[2] = system: OVCAR-3
[3] = system: KM-20L2
[4] = system: K562
[5] = system: NCI-H522
[6] = system: Malme-3M
[7] = system: SR
[8] = system: T47D
[9] = system: Hs-578T
[10] = system: HL-60
[11] = system: BT-549
[12] = system: OVCAR-8
[13] = system: NCI-H460
[14] = system: A498
[15] = system: DU-145
[16] = system: MDA-MB-231
[17] = system: ACHN
[18] = system: HCT-15
[19] = system: NCI/ADR-RES
[20] = system: PC-3

SMILES | GI50 [1] | GI50 [2] | GI50 [3] | GI50 [4] | GI50 [5] | GI50 [6] | GI50 [7] | GI50 [8] | GI50 [9] | GI50 [10] | GI50 [11] | GI50 [12] | GI50 [13] | GI50 [14] | GI50 [15] | GI50 [16] | GI50 [17] | GI50 [18] | GI50 [19] | GI50 [20]
COc1cccc2c1C(=O)C=CC2=O | 2.1 µM (inactive) | 1.85 µM (inactive) | 16.7 µM (inactive) | 1.32 µM (inactive) | 2.39 µM (inactive) | 15.5 µM (inactive) | 0.269 µM (active) | 2.22 µM (inactive) | 15.4 µM (inactive) | 0.32 µM (active) | 15.5 µM (inactive) | 3.58 µM (inactive) | 15.6 µM (inactive) | 16.2 µM (inactive) | 19.2 µM (inactive) | 2.15 µM (inactive) | 4.39 µM (inactive) | 7.85 µM | – | –
CN(C)C(=S)SN(C)C(=O)Nc1ccccc1 | 15.7 µM (inactive) | 0.618 µM (active) | > 49.2 µM (inactive) | 0.998 µM (active) | 0.128 µM (active) | 16.7 µM (inactive) | 5.43 µM (inactive) | 1.26 µM (inactive) | > 100 µM (inactive) | 2.86 µM (inactive) | > 41.2 µM (inactive) | 35.3 µM (inactive) | 1.82 µM (inactive) | 3.9 µM (inactive) | 63 µM (inactive) | 38.9 µM (inactive) | 47.2 µM (inactive) | 22.6 µM | 3.2 µM (inactive) | 7.43 µM (inactive)
